In patent US11613527B2, “Enzyme inhibitors” (KalVista Pharmaceuticals Limited, priority 2019, dated 2023) one finds Cmax, IC50 and solubility data, which are given here for 14 molecules.

A short description of data set [1]: Pharmacokinetics following a single oral dose in male Sprague-Dawley rats. Type of data set: in vivo. Conditions: rat, nominal 5 mg/kg in 10% DMSO/10% cremophor/80% SWFI, plasma. On the procedure:
Pharmacokinetic studies of the compounds in Table 14 were performed to assess the pharmacokinetics following a single oral dose in male Sprague-Dawley rats. Two rats were given a single po dose of 5 mL/kg of a nominal 1 mg/mL (5 mg/kg) composition of test compound in 10% DMSO/10% cremophor/80% SWFI vehicle. Following dosing, blood samples were collected over a period of […]. Sample times were 5, 15 and 30 minutes then 1, 2, 4, 6, 8 and 12 hours. Following collection, blood samples were centrifuged and the plasma fraction analysed for concentration of test compound by LCMS.

The target of a further data set is Human FXIa (Homo sapiens (Human), UniProt P03951). Kind of data set: Determination of the % inhibition for FXIa (fluorogenic substrate Z-Gly-Pro-Arg-AFC; 40 μM or IC50). The format is biochemical. A digest of the protocol:
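Inhibition measured from initial reaction rate, followed as absorbance change at 410 nm, with substrate Z-Gly-Pro-Arg-AFC at 25 °C. Compound tested at a single 40 μM dose for percent inhibition, or across several concentrations to derive IC50 against human FXIa.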

Another data set has as its target Human KLK1 (Homo sapiens (Human), UniProt P06870). Kind of data set: Determination of the IC50 for KLK1 (fluorogenic substrate H-DVal-Leu-Arg-AFC). Type of data set: biochemical. A digest of the protocol:
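Inhibition read as initial rate via optical absorbance change at 410 nm, giving IC50. Reactions combined human KLK1, the substrate H-DVal-Leu-Arg-AFC and varied compound concentrations at 25° C.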

Data set [2] can be described thus: Solubility after 24 hrs in Fasted State Simulated Intestinal Fluid (FaSSIF). Type of data set: physicochemical. Conditions: Fasted State Simulated Intestinal Fluid (FaSSIF), thermodynamic from solid, 24 hrs at 37° C., nominal concentration 1 mg/mL (as free base). Put shortly:
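Compound at nominal 1 mg/mL (as free base) in freshly prepared FaSSIF, shaken 24 h at 37 °C, ~500 rpm. After centrifugation at 15,000 g for 10 min at 37 °C, dissolved concentration measured by LCMS.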

A further data set has as its target Human plasma kallikrein (Homo sapiens (Human), UniProt P03952). As to the kind of experiment: Determination of the IC50 for plasma kallikrein (fluorogenic substrate H-DPro-Phe-Arg-AFC). Type of data set: biochemical. Conditions: class symbols A-D, read-out: IC50 (human PKal). Put shortly: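 IC50 values come from initial rates, monitored as the change in absorbance at 410 nm, of residual enzyme activity. Test compound was present at various concentrations with the fluorogenic substrate H-DPro-Phe-Arg-AFC, and the reaction was run at 25° C.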

Structures are written as SMILES. pIC50: −log10 of the molar value. Values after ≈ are worked out from the molar mass of the structure shown.

Human KLK1, sequence (P06870 25-262): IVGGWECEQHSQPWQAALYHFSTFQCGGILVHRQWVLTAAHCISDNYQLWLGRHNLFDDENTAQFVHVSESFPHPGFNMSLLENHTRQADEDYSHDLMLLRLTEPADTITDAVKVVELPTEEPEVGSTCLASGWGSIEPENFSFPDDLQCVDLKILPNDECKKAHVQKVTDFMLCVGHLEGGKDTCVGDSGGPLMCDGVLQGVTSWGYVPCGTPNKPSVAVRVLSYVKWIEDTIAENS
Human FXIa, sequence (P03951 388-625): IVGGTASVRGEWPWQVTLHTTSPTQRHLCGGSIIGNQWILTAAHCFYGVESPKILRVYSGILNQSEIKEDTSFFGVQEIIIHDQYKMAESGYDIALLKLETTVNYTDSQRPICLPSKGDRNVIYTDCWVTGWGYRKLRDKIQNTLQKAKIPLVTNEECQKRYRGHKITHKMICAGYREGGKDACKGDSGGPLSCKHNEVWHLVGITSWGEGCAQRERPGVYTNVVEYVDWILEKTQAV
Human FXIa, sequence (P03951 19-387 partner): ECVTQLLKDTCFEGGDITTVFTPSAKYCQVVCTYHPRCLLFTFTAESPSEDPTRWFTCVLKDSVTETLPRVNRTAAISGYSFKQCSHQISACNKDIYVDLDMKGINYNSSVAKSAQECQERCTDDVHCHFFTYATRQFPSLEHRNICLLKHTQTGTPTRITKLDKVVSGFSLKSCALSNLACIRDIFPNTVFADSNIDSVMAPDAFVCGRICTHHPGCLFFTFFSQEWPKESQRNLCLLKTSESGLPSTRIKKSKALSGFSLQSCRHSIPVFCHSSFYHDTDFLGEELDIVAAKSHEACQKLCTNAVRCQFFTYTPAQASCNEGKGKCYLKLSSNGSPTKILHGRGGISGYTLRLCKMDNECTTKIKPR
Human plasma kallikrein, sequence (P03952 391-638): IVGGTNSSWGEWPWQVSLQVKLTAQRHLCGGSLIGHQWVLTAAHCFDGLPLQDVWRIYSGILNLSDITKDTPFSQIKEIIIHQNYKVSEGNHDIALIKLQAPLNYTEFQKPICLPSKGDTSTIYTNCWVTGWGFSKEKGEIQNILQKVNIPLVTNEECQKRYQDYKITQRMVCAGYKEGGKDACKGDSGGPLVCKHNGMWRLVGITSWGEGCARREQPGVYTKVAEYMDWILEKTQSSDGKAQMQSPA
Human plasma kallikrein, sequence (P03952 20-390 partner): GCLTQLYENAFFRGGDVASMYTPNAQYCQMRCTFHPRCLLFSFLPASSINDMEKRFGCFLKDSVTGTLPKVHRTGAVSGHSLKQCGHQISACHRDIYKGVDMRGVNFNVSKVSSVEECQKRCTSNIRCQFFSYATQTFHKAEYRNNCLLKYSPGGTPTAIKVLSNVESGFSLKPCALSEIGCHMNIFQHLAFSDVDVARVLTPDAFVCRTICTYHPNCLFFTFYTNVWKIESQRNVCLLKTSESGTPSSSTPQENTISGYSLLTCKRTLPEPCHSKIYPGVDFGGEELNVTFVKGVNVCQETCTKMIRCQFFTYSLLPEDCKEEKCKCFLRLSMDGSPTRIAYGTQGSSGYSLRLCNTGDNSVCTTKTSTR

Molecule `COCc1nn(Cc2ccc3c(c2)CN(C)CC3)cc1C(=O)NCc1c(-n2cc(C(F)F)nn2)ccc(OC)c1F` [Example 1, N-({6-[4-(difluoromethyl)-1,2,3-triazol-1-yl]-2-fluoro-3-methoxyphenyl}methyl)-3-(methoxymethyl)-1-[(2-methyl-3,4-dihydro-1H-isoquinolin-7-yl)methyl]pyrazole-4-carboxamide] registered a Cmax in data set [1] of 88 ng/mL. Also, the pIC50 at Human FXIa is under 4.40; on Human KLK1, under 4.40; at Human plasma kallikrein, over 8.00. In data set [2], this molecule showed a solubility at 24 h of 930 µg/mL (≈ 1630 µM).
The molecule `COCc1nn(Cc2ccc3c(c2)CN(C)CC3)cc1C(=O)NCc1c(-n2cc(C)nn2)ccc(OC)c1F` [Example 2, N-{[2-Fluoro-3-methoxy-6-(4-methyl-1,2,3-triazol-1-yl)phenyl]methyl}-3-(methoxymethyl)-1-[(2-methyl-3,4-dihydro-1H-isoquinolin-7-yl)methyl]pyrazole-4-carboxamide] returned a Cmax in data set [1] of 134 ng/mL. For the same molecule, the figures for the pIC50 against Human FXIa, at Human KLK1 and at Human plasma kallikrein were under 4.40, under 4.40 and over 8.00, respectively. The same molecule displayed a solubility at 24 h in data set [2] of 710 µg/mL (≈ 1330 µM).
As for `COCc1nn(Cc2ccc3c(c2)CN(C(C)C)C3)cc1C(=O)NCc1c(-n2cc(C)nn2)ccc(OC)c1F` [Example 55, N-{[2-Fluoro-3-methoxy-6-(4-methyl-1,2,3-triazol-1-yl)phenyl]methyl}-1-[(2-isopropyl-1,3-dihydroisoindol-5-yl)methyl]-3-(methoxymethyl)pyrazole-4-carboxamide], the peak level in data set [1] (Cmax) was 136 ng/mL. The solubility at 24 h in data set [2] is over 1000 µg/mL.
Take `COCc1nc(C(=O)NCc2c(-n3cc(C)nn3)ccc(OC)c2F)cn1Cc1ccc2c(c1)CN(C)CC2` [Example 148, N-{[2-fluoro-3-methoxy-6-(4-methyl-1,2,3-triazol-1-yl)phenyl]methyl}-2-(methoxymethyl)-1-[(2-methyl-3,4-dihydro-1H-isoquinolin-7-yl)methyl]imidazole-4-carboxamide]: the pIC50 is under 4.40 on Human FXIa, under 4.40 against Human KLK1 and 7.52 to 8.00 at Human plasma kallikrein. Also, the solubility at 24 h in data set [2] was over 1000 µg/mL.
Regarding `COc1ccc(-n2cc(C)nn2)c(CNC(=O)c2cn(Cc3ccc4c(c3)CN(C)CC4)c(C3CC3)n2)c1F` [Example 149, 2-cyclopropyl-N-{[2-fluoro-3-methoxy-6-(4-methyl-1,2,3-triazol-1-yl)phenyl]methyl}-1-[(2-methyl-3,4-dihydro-1H-isoquinolin-7-yl)methyl]imidazole-4-carboxamide], the pIC50 at Human FXIa is under 4.40; at Human KLK1, under 4.40; on Human plasma kallikrein it was 7.52 to 8.00. In data set [2], this molecule came in with a solubility at 24 h of 910 µg/mL (≈ 1720 µM).
As for `COc1ccc(-n2cc(C)nn2)c(CNC(=O)c2cn(Cc3ccc4c(c3)CN(C)CC4)c(C)n2)c1F` [Example 151, N-{[2-fluoro-3-methoxy-6-(4-methyl-1,2,3-triazol-1-yl)phenyl]methyl}-2-methyl-1-[(2-methyl-3,4-dihydro-1H-isoquinolin-7-yl)methyl]imidazole-4-carboxamide], the pIC50 on Human FXIa was under 4.40; at Human KLK1, under 4.40; on Human plasma kallikrein, 7.52 to 8.00. In data set [2], this molecule registered a solubility at 24 h of 750 µg/mL (≈ 1490 µM).
As to `COc1ccc(-n2cc(C)nn2)c(CNC(=O)c2cn(Cc3ccc4c(c3)CN(C)CC4)nn2)c1F` [Example 152, N-{[2-fluoro-3-methoxy-6-(4-methyl-1,2,3-triazol-1-yl)phenyl]methyl}-1-[(2-methyl-3,4-dihydro-1H-isoquinolin-7-yl)methyl]-1,2,3-triazole-4-carboxamide], the results for the pIC50 at Human FXIa, against Human KLK1 and at Human plasma kallikrein were under 4.40, under 4.40 and over 8.00, respectively. In data set [2], the solubility at 24 h is 1000 µg/mL (≈ 2040 µM).
For the molecule `COc1ccc(-n2cc(C)nn2)c(CNC(=O)c2cn(Cc3ccc4c(c3)CN(C(C)C)C4)nn2)c1F` [Example 153, N-{[2-fluoro-3-methoxy-6-(4-methyl-1,2,3-triazol-1-yl)phenyl]methyl}-1-[(2-isopropyl-1,3-dihydroisoindol-5-yl)methyl]-1,2,3-triazole-4-carboxamide], the pIC50 against Human FXIa is under 4.40; against Human KLK1, under 4.40; on Human plasma kallikrein it was over 8.00. The molecule also gave a solubility at 24 h in data set [2] of 950 µg/mL (≈ 1880 µM).
Consider `COCc1nn(Cc2ccc3c(c2)CN(C)CC3)cc1C(=O)NCc1c(-n2cnc(C(F)F)n2)ccc(OC)c1Cl` [Example 156, N-({2-chloro-6-[3-(difluoromethyl)-1,2,4-triazol-1-yl]-3-methoxyphenyl}methyl)-3-(methoxymethyl)-1-[(2-methyl-3,4-dihydro-1H-isoquinolin-7-yl)methyl]pyrazole-4-carboxamide], for which the pIC50 at Human FXIa is under 4.40; on Human KLK1, under 4.40; on Human plasma kallikrein it was over 8.00. The molecule also displayed a solubility at 24 h in data set [2] of over 1000 µg/mL.
Turning to `COc1ccc(-n2cc(C)nn2)c(CNC(=O)c2ccc(=O)n(Cc3ccc4c(c3)CN(C)CC4)c2)c1F` [Example 160, N-{[2-fluoro-3-methoxy-6-(4-methyl-1,2,3-triazol-1-yl)phenyl]methyl}-1-[(2-methyl-3,4-dihydro-1H-isoquinolin-7-yl)methyl]-6-oxopyridine-3-carboxamide], the figures for the pIC50 on Human FXIa, against Human KLK1 and at Human plasma kallikrein were under 4.40, under 4.40 and over 8.00, respectively. This molecule also displayed a solubility at 24 h in data set [2] of 820 µg/mL (≈ 1590 µM).
Turning to `COc1ccc(-n2cc(C)nn2)c(CNC(=O)c2cncc(Cc3ccc4c(c3)CN(C)CC4)c2)c1F` [Example 161, N-{[2-fluoro-3-methoxy-6-(4-methyl-1,2,3-triazol-1-yl)phenyl]methyl}-5-[(2-methyl-3,4-dihydro-1H-isoquinolin-7-yl)methyl]pyridine-3-carboxamide], the results for the pIC50 at Human FXIa, against Human KLK1 and at Human plasma kallikrein were under 4.40, under 4.40 and over 8.00, respectively. The solubility at 24 h in data set [2] is over 1000 µg/mL.
On to `COCc1nn(Cc2ccc3nc(C)ccc3c2)cc1C(=O)NCc1c(-n2cnnn2)ccc(OC)c1F` [RC2, N-{[2-fluoro-3-methoxy-6-(1,2,3,4-tetrazol-1-yl)phenyl]methyl}-3-(methoxymethyl)-1-[(2-methylquinolin-6-yl)methyl]pyrazole-4-carboxamide, reference compound], for which the pIC50 is 6.66 at Human FXIa, under 4.40 against Human KLK1 and over 8.00 on Human plasma kallikrein. Besides, the solubility at 24 h in data set [2] was 20 µg/mL (≈ 38.7 µM).
In the same order, the values of `COCc1nn(Cc2ccc3ncccc3c2)cc1C(=O)NCc1c(-n2cnnn2)ccc(OC)c1F` [RC3, N-{[2-fluoro-3-methoxy-6-(1,2,3,4-tetrazol-1-yl)phenyl]methyl}-3-(methoxymethyl)-1-(quinolin-6-ylmethyl)pyrazole-4-carboxamide, reference compound] are 5.72, under 4.40, over 8.00 and 20 µg/mL (≈ 39.8 µM).
Take `COCc1nn(Cc2cnc(N3CCCC3)nc2)cc1C(=O)NCc1c(-n2cc(C(F)F)nn2)ccc(OC)c1F` [RC7, N-({6-[4-(difluoromethyl)-1,2,3-triazol-1-yl]-2-fluoro-3-methoxyphenyl}methyl)-3-(methoxymethyl)-1-{[2-(pyrrolidin-1-yl)pyrimidin-5-yl]methyl}pyrazole-4-carboxamide, reference compound]: the pIC50 against Human FXIa is 6.25; on Human KLK1, under 4.40; at Human plasma kallikrein, over 8.00. For the same molecule, in data set [2], the solubility at 24 h is 10 µg/mL (≈ 17.5 µM).
